{
  "source": "patent US7635592B2",
  "about": "“Tissue engineering scaffolds promoting matrix protein production” (Rice University, priority 2000, dated 2009)",
  "key": {"[1]": {"test_system": "Aortic smooth muscle cells", "experiment": "Matrix production in the presence of ascorbic acid, aortic smooth muscle cells", "format": "cell-based", "details": "SMCs", "protocol": "(§1) Aortic smooth muscle cells and auricular chondrocytes were grown on tissue culture polystyrene with and without 50 μg/ml ascorbic acid added to the media. ECM protein production by the cells over a 2-day time period was determined by examining the amount of ^3H-glycine incorporated into the ECM elaborated by the cells."}, "[2]": {"test_system": "Auricular chondrocytes", "experiment": "Matrix production in the presence of ascorbic acid, auricular chondrocytes", "format": "cell-based", "protocol": "as §1"}, "[3]": {"test_system": "SMCs", "experiment": "Matrix protein production on peptide-modified glass surfaces (3H-glycine incorporation into ECM)", "format": "cell-based, Wistar-Kyoto rats", "details": "for increase in matrix production per cell over that produced when no TGF-β was added: 0.04 pmol/ml (1 ng/ml) soluble TGF-β in the media, 2 days", "description": "(§2) Chemicals were obtained from Sigma Chemical Co. (St. Louis, Mo.) unless otherwise stated. SMCs from the thoracic aorta of Wistar-Kyoto rats were isolated and characterized as previously described by Scott-Burden, et al., Hypertension 13:295-305 (1989). Human aortic smooth muscle cells (HASMCs) were obtained from Clonetics (San Diego, Calif.). Both SMCs and HASMCs were maintained on Minimal Essential Medium Eagle supplemented with 10% fetal bovine serum (FBS; BioWhittaker, Walkersville, Md.), 2 mM L-glutamine, 500 units penicillin and 100 mg/l streptomycin (MEM). Cells were incubated at 37° C. in a 5% CO2 environment.\nPeptides used in this study were RGDS (SEQ ID NO:1), VAPG (SEQ ID NO:2), and KQAGDV (SEQ ID NO:3) (Research Genetics, Huntsville, Ala.). RGES (SEQ ID NO:4) was used as a non-adhesive control peptide. The peptides were acetylated and coupled to aminophase glass slides as previously described by Mann, et al., Biomaterials 20:2281-2286 (1999). Briefly, aminophase slides were prepared by incubating glass slides with 3-aminopropyltriethoxysilane in dry acetone at 37° C. overnight. Acetylated peptides were then coupled to the slides using 1-ethyl-3-(3-dimethylaminopropyl) carbodiimide (EDAC) chemistry. Slides were sterilized under UV light overnight prior to use.\nMatrix protein production was evaluated as previously described by Mann (1999). Suspensions of SMCs were prepared in MEM supplemented with 5 μg/ml ascorbic acid at a concentration of 40,000 cells/ml. For samples receiving TGF-β, 0.04 pmol/ml (1 ng/ml) unmodified TGF-β or 0.04 pmol/ml acryloyl-PEG-TGF-β was added to the media. Cell suspensions to be used for measurement of ECM protein production were also supplemented with 1 μCi/ml ^3H-glycine (40 Ci/mmol). The glass slides were attached to FlexiPerm strips in QuadriPerm Cell Culture Vessels (Heraeus, Osterode am Harz, Germany) to create eight wells (1.11×0.79×0.79 cm) on each slide. Four of the wells on each slide were utilized to measure ECM production, while the remaining four wells were utilized for cell number determination and were cultured in the absence of ^3H-glycine. Cell number was determined after 2 days of culture by preparing single cell suspensions using trypsin and counting cells using a Coulter counter (Multisizer #0646, Coulter Electronics, Hialeah, Fla.).\nTo evaluate synthesis of ECM proteins, the cell growth media was supplemented with ^3H-glycine, as described above. Two days following ^3H-glycine addition, cells were removed non-enzymatically with 25 mM ammonium hydroxide, then rinsed with 70% ethanol and dried. This process leaves intact the ECM elaborated by cells during culture (Jones, et al., Proc. natl. Acad. Sci. USA 76:353-357 (1979)). Sequential enzyme digestion was used as previously described by Mann (1999) to determine the gross composition of the ECM proteins. Briefly, the ECM was digested first with trypsin, followed by elastase, and then collagenase. After the final enzymatic digestion, any material remaining on the substrate was dissolved by incubation with 1 N NaOH. Aliquots were taken from each step of the digest for scintillation counting."}, "[4]": {"test_system": "Aortic smooth muscle cells", "experiment": "Dose response of aortic smooth muscle cells to TGF-β on RGDS-coupled aminophase glass", "format": "cell-based", "protocol": "Aortic smooth muscle cells were grown on aminophase glass that had 0.5 nmol/cm^2 RGDS (SEQ ID NO:1) covalently coupled to the glass. TGF-β was added to the media at 0, 1, or 5 ng/ml (0, 4×10^−5, 2×10^−4 nmol/ml). ECM protein production by the cells over a 2-day time period was determined by examining the amount of ^3H-glycine incorporated into the ECM elaborated by the cells."}, "[5]": {"test_system": "SMCs", "experiment": "DNA and hydroxyproline determination in RGDS-containing PEG hydrogels seeded with SMCs", "format": "cell-based, Wistar-Kyoto rats", "details": "0.04 pmol/ml, 7 days of culture", "description": "as §2, with “environment. […]” for “environment.”\nAfter 7 days of culture, hydrogels were removed from the culture media, weighed, and digested with 1 ml 0.1 N NaOH overnight at 37° C. […] DNA content of the digested, neutralized hydrogels was determined using a fluorescent DNA binding dye, Hoechst 33258 (Molecular Probes, Eugene, Oreg.). Fluorescence of the samples was determined using a fluorometer (VersaFluor, Bio-Rad Laboratories, Hercules, Calif.) with excitation filter at 360 nm and emission filter at 460 nm, and compared to fluorescence of calf thymus DNA standards.\nHydroxyproline concentration was determined by oxidation with chloramine T (ICN Biomedicals, Aurora, Ohio) and development with p-dimethylaminobenzaldehyde (ICN Biomedicals) (Woessner, et al. Arch. Biochem. Biophys. 93:440-447 (1961)). […]"}, "[6]": {"test_system": "Auricular chondrocytes", "experiment": "Dose response of auricular chondrocytes to TGF-β on tissue culture polystyrene", "format": "cell-based", "protocol": "Auricular chondrocytes were grown on tissue culture polystyrene with varying amounts of TGF-β added to the media: 0, 1, 5, 10, 25, or 100 ng/ml. ECM protein production by the cells over a 2-day time period was determined by examining the amount of ^3H-glycine incorporated into the ECM elaborated by the cells."}, "[7]": {"details": "50 μg/ml ascorbic acid in the media, 2 days"}, "[8]": {"details": "50 μg/ml ascorbic acid, over 2 days"}, "[9]": {"details": "RGDS-modified glass surfaces, 0.04 pmol/ml in the media"}},
  "data": [
    {"compound": "O=C1O[C@H]([C@@H](O)CO)C(O)=C1O", "note": "[ascorbic acid]", "values": [
      {"measurement": "ECM protein production per cell", "setting": "[1]; [7]", "value": "increased"},
      {"measurement": "cell numbers (proliferation)", "setting": "[1]; [8]", "value": "did not increase"},
      {"measurement": "ECM protein production per cell", "setting": "[2]; [7]", "value": "increased"},
      {"measurement": "cell numbers (proliferation)", "setting": "[2]; [8]", "value": "did not increase"}
    ]},
    {"compound": "transforming growth factor-beta [TGF-β]", "values": [
      {"measurement": "increase in matrix production per cell over that produced when no TGF-β was added", "setting": "[3]; KQAGDV surfaces", "value": 104, "unit": "%"},
      {"measurement": "matrix production compared with the non-adhesive control (RGES)", "setting": "[3]; RGDS and KQAGDV modified surfaces, 1 ng/ml TGF-β in the media", "value": "increased over that seen with the non-adhesive control"},
      {"measurement": "increase in matrix production per cell over that produced when no TGF-β was added", "setting": "[3]; RGDS surfaces", "value": 224, "unit": "%"},
      {"measurement": "matrix production compared with absence of TGF-β", "setting": "[3]; [9]", "value": "greater amounts of matrix"},
      {"measurement": "increase in matrix production per cell over that produced when no TGF-β was added", "setting": "[3]; VAPG surfaces", "value": 20, "unit": "%"},
      {"measurement": "cell numbers (proliferation)", "setting": "[4]; TGF-β 1 or 5 ng/ml, over 2 days", "value": "did not increase"},
      {"measurement": "ECM protein production per cell (% of control)", "setting": "[4]; TGF-β in the media at both 1 and 5 ng/ml, 2 days", "value": "increased"},
      {"measurement": "optimal concentrations to induce ECM production", "setting": "[4]; aortic smooth muscle cells", "value": "one and five"},
      {"measurement": "hydroxyproline (collagen) production compared with no TGF-β", "setting": "[5]", "value": "More hydroxyproline"},
      {"measurement": "ECM protein production per cell", "setting": "[6]; TGF-β in the media at concentrations above 1 ng/ml, 2 days", "value": "increased"},
      {"measurement": "cell numbers (proliferation)", "setting": "[6]; TGF-β up to 100 ng/ml, over 2 days", "value": "did not increase"},
      {"measurement": "optimal concentration for ECM protein production per cell", "setting": "[6]; auricular chondrocytes, 2 days", "value": 25, "unit": "ng/mL"}
    ]},
    {"compound": "acryloyl-PEG-TGF-β [polymer-conjugated TGF-β]", "values": [
      {"measurement": "matrix production compared with absence of TGF-β", "setting": "[3]; [9]", "value": "greater amounts of matrix"},
      {"measurement": "matrix production compared with unmodified TGF-β", "setting": "[3]; [9]", "value": "less matrix was produced"}
    ]}
  ]
}
